Tested on: S. aureus
Assay: Sandwich ELISA readout of growth-dependent metabolic labeling (biotin-D-lysine probe incorporation) +/- antibiotic
Type: cell-based, Staphylococcus aureus
Conditions: S. aureus +/- vancomycin; FIG. 4
Protocol: FIG. 4. ELISA can be used as a rapid readout for antibiotic susceptibility. S. aureus was incubated+/−antibiotic for 20 min then with cell envelope probe for an additional 10 min. Probe incorporation was quantitated by sandwich ELISA (absorbance, OD450).
Bacterial strains and growth conditions. Staphylococcus aureus was grown in brain heart infusion broth (BHI; BD BBL, Sparks, MD.). Escherichia coli K-12 was grown in Luria Bertani broth (LB; Apex Research Products, El Cajon, CA). All bacteria were initially grown by shaking at 37° C. overnight.
Cell wall labeling. Bacterial cultures were back diluted in their respective media and grown at 37° C. until the mid-log phase (OD600=0.3 for S. aureus; OD600=0.35 for E. coli); for concentration dependency experiments the starting OD600 for each sample varied. Where appropriate, cultures were treated with freshly prepared ampicillin (100 μg/mL; Fisher Bioreagents, Fair Lawn, NJ) or vancomycin (100 μg/mL; Alfa Aesar, Ward Hill, MA) and incubated on a shaker at 37° C. for 90 minutes.
Growing bacteria were labeled with biotin D-lysine (Chem-Impex International, Wood Dale, IL; reagent was deprotected first). Unless otherwise indicated, they were labeled with 1 mM biotin-D-lysine shaking at 37° C. for 20 (S. aureus) or 30 (E. coli) minutes. […]
ELISA experiment. […] The absorbance was measured at 450 nm with a BioTek Plate Reader.

CN[C@H](CC(C)C)C(=O)N[C@H]1C(=O)N[C@@H](CC(N)=O)C(=O)N[C@H]2C(=O)N[C@H]3C(=O)N[C@H](C(=O)N[C@H](C(=O)O)c4cc(O)cc(O)c4-c4cc3ccc4O)[C@H](O)c3ccc(c(Cl)c3)Oc3cc2cc(c3O[C@@H]2O[C@H](CO)[C@@H](O)[C@H](O)[C@H]2O[C@H]2C[C@](C)(N)[C@H](O)[C@H](C)O2)Oc2ccc(cc2Cl)[C@H]1O [vancomycin] was tested, and the “ELISA readout of probe incorporation (absorbance, OD450) with versus without antibiotic” value was “can discriminate between S. aureus+/−vancomycin”.

From US20250002970A1, “A[…] LABELING FOR DETECTION OF BACTERIAL VIABILITY, GROWTH AND ANTIBIOTIC SUSCEPTIBILITY” (University of Massachusetts, priority 2021, published 2025)
